Experiments:
CTFα = experiment: APP carboxy-terminal fragment αCTF by Western blot in SY5Y-APP695WT cells; format: cell-based, human; details: CTFα increase compared to chloroquine ([CTF]compound/[CTF]CQ) at 3 μM; mean of at least three experiments
Text: Antibodies. Primary antibodies used in this study for western-blot analysis included a homemade rabbit antiserum against the last 17 amino acids of human APP protein sequence, named APP-Cter-C17 (1/5000 in TBS-M). Anti-β-actin (1/10 000 in TBS-M) was obtained from Sigma. Anti-LC3B (1/2000 in TBS-BSA) and anti-p62/SQSTM1 (1/2000 in TBS-M) antibodies were purchased from Cell Signaling Technology. Secondary antibodies (peroxidase-labeled goat anti-rabbit IgG, 1/5000 or peroxidase-labeled horse anti-mouse IgG, 1/50000 in TBS-T) were obtained from Vector Laboratories.
Cell culture and treatment. The human neuroblastoma cell line SY5Y-APP^695WT was maintained in Dulbecco's modified Eagle medium (DMEM, high glucose, pyruvate—GIBCO by Life Technologies) supplemented with 10% foetal bovine serum, 2 mM L-glutamine, 1 mM non-essential amino acids and penicillin/streptomycin (GIBCO by Life Technologies) at 37° C. in a 5% CO2 humidified incubator. SY5Y-APP^695WT cells were maintained in 75 cm^2 culture flasks (Falcon) with supplemented DMEM medium until they reached 80% of confluence 24 h before treatment.
For drug treatment, cells were plated at a rate of 5·10^5 cells per well into 12-well plates (Falcon) and cultured with 1 mL supplemented DMEM cell medium for 24 h before drug exposure. The following day, cell medium was replaced with fresh medium containing drugs diluted at the indicated concentrations. Cells were treated for 24 h. At the end of treatments, the cell medium was collected and kept at −80° C. until use for dosage. Then, cells were rinsed once with PBS and extracted in 100 μL of Laemmli buffer (10 mM Tris, 20% glycerol and 2% Sodium dodecyl sulfate) using a cell-scraper. The cell lysate was further sonicated (30 pulses of 0.5 s, 60 Hz) for 5 min. Total protein concentration was determined using the Pierce BCA Protein Assay Kit (Thermo scientific) according to the manufacturer's instructions. Samples were stored at −80° C. until analysis.
Western Blot Analysis. Cell protein lysates were prepared for western-blot analysis by diluting the sample with 1 volume of NuPAGE® lithium dodecyl sulfate (LDS) 2× sample buffer supplemented with 20% NuPAGE® sample reducing agents (Invitrogen). Samples were heat 10 min at 100° C. 10 μg of total proteins per well were loaded onto a precast 4-12% Criterion XT Bis-Tris polyacrylamide gel (Bio-Rad) and electrophoresis was achieved after applying a tension of 150 V during 90 min using a Criterion electrophoresis Cell with the NuPAGE® MOPS SDS running buffer (1×). Proteins were transferred to a nitrocellulose membrane of […] pore size (G&E Healthcare) using the Criterion blotting system and applying a tension of 100 V for 45 min. To resolve proteins of low molecular weights such as carboxy-terminal fragments of APP, 12% Criterion XT Bis-Tris polyacrylamide gels (Bio-Rad) were used and electrophoresis was performed during 70 min at 150 V in a NuPAGE® MES SDS running buffer (1×). Proteins were transferred to a nitrocellulose membrane of 0.2 μm pore size (G&E Healthcare) at 100 V for 40 min. Molecular weights calibration was achieved using molecular weight markers (Novex and Magic Marks, Life Technologies). Protein transfer and quality were determined by a reversible Ponceau Red coloration (0.2% Xylidine Ponceau Red and 3% Trichloroacetic acid). Membranes were then blocked in 25 mM Tris-HCl pH 8.0, 150 mM NaCl, 0.1% Tween-20 (v/v) (TBS-T) and 5% (w/v) of skimmed milk (TBS-M) or 5% (w/v) of bovine serum albumin (TBS-BSA) depending on the antibody during 1 h. Membrane was rinsed three-times 10 min in TBS-T before incubation with the primary antibody overnight at 4° C. Membrane was rinsed 3 times 10 min with TBS-T and then incubated with the secondary antibody for 45 min at room temperature (RT). […] Quantifications of protein expression levels were performed with ImageJ Software (NIH). […]

ThyTau22 mice = experiment: Y-Maze short-term memory test in Thy-Tau22 mice; format: in vivo; details: ThyTau22 mice treated one month, 1 mg/kg in drinking water; compared with compound 30
Experimental: Thy-Tau22 transgenic colonies (C57Bl/6J genetic background) were obtained by crossing heterozygous males C57Bl/6J with WT females. All animals were housed in a pathogen-free facility at 5 to 6 animals per cage (Techniplast Cages 1284L), with ad libitum access to food and water in a 12/12-hour light-dark cycle and maintained under a constant temperature of 22° C. For treatment, animals were randomly distributed and compound 30 or 31 was provided in the drinking water at a final concentration of 1 mg/kg, ie 12.5 μg/mL for drinking solutions taking into account an average weight of 25 g/mouse drinking 4 mL/day. […] Food consumption and bodyweight were also assessed. […]
Before any behavioral test, exploratory behavior and locomotion were evaluated in treated and untreated animals in an Openfield (OF) 25 cm×25 cm arena. […] Anxiety, which could interfere with the memory test, was evaluated using the elevated plus maze (EPM). […] Locomotion, distance, speed and velocity were measured, as well as the number of entries into each arm, time spent in open versus closed arms, percentage of open arm entries and time spent in the open arms during a 5 minutes test.
Y-Maze: Short-term memory was tested on a Y-maze. […] Parameters—total distance travelled, velocity, alternation between the arms, entries into the new, starting or other arm—were measured over 5 minutes. […]

wild-type mice = experiment: Y-Maze short-term memory test in wild-type mice; format: in vivo; details: treated wild-type mice, 1 mg/kg in drinking water
Experimental: Thy-Tau22 transgenic colonies (C57Bl/6J genetic background) were obtained by crossing heterozygous males C57Bl/6J with WT females. All animals were housed in a pathogen-free facility at 5 to 6 animals per cage (Techniplast Cages 1284L), with ad libitum access to food and water in a 12/12-hour light-dark cycle and maintained under a constant temperature of 22° C. For treatment, animals were randomly distributed and compound 30 or 31 was provided in the drinking water at a final concentration of 1 mg/kg, ie […] for drinking solutions taking into account an average weight of 25 g/mouse drinking 4 mL/day. […] Food consumption and bodyweight were also assessed. In WT animals, a pilot study of drug treatment was performed for one month to establish the innocuousness of compound 30 and 31 treatments. Thy-Tau22 females were treated for 1 months, starting at 6 months of age.
Y-Maze: Short-term memory was tested on a Y-maze. The Y-maze consists of three enclosed arms surrounded by spatial clues. One arm was closed off during the learning phase. Each mouse was positioned in the Starting arm. Mice were allowed to explore the maze for 5 min. During 2 min of retention time, the closed arm was opened and the mouse was re-placed in the starting arm. […] Parameters—total distance travelled, velocity, alternation between the arms, entries into the new, starting or other arm—were measured over 5 minutes. […]

Row | Compound | CTFα vs CQ (3 μM) (CTFα) | short memory preservation at the Y-Maze task (ThyTau22 mice) | Y-Maze behavioral task (wild-type mice)
1 | CN(C)Cc1ccccc1-c1ccc(NCCCN2CCCCC2)c(OCCN2CCCCC2)c1 [Compound 30, 4-(2-[(Dimethylamino)methyl]phenyl)-2-[2-(piperidin-1-yl)ethoxy]-N-[3-(piperidin-1-yl)propyl]aniline] | 6.4 | – | –
2 | CN(C)Cc1ccccc1-c1ccc(NCCCN2CCCCC2)c(OCCC2CCCCC2)c1 [Compound 31, 3-(2-cyclohexylethoxy)-2′-((dimethylamino)methyl)-N-(3-(piperidin-1-yl)propyl)-[1,1′-biphenyl]-4-amine] | 0.1 | higher short memory preservation | succeed in the Y-Maze behavioral task
